Experimental data: PMC12217109, “Development of novel benzamide class I selective lysine deacetylase inhibitors as potent anticancer agents” (Journal of Enzyme Inhibition and Medicinal Chemistry, 2025)
Like-named read-outs stand apart in the source and are kept apart here.

Key:
[1] = system: A2780 ovarian cancer cell line; test: MTT cellular viability assay, A2780; type: cell-based; conditions: Homo sapiens
[2] = system: MCF7 breast cancer cell line; test: MTT cellular viability assay, MCF7; type: cell-based; conditions: Homo sapiens, 96 h
Protocol: The human A2780 ovarian (#93112519) and MCF-7 breast (#86012803) cancer cell lines were obtained from the European Cell Culture Collection (ECACC; Salisbury, UK). The human cardiac ventricular AC16 cell line (#SCC109) was obtained from Merck/Millipore (UK). The A2780 and MCF-7 cell lines were maintained in RPMI-1640 medium and the AC16 cell line was maintained in DMEM/F12 medium. Culture medium of all three cell lines was supplemented with 10% heat-inactivated foetal bovine serum (FBS) and 2 mM L-glutamine, with the cells maintained in a humidified 5% CO2 atmosphere at 37 °C. The media was changed every 72h and the cells passaged via trypsinisation (Trypsin EDTA, 0.25%) before reaching confluency.
Cytotoxicity of each compound against the cell lines was assessed using the MTT assay. Cells were seeded in three replicates into 96-well plates at a density of 2 × 10^3/well for 24h to facilitate cell attachment. Media was replaced with that containing either test compound (0–10µM) for A2780 and MCF7 cell lines, single concentration (10 µM) test compound for AC16 cell line, or drug vehicle (dimethyl sulphoxide; DMSO) and the cells incubated for a further 96 h at 37 °C in a humidified 5% CO2 atmosphere. […] Chemosensitivity was thereafter assessed using a standard 3-[4, 5-dimethylthiazolyl]-2,5-diphenyltetrazolium bromide (MTT) assay, with the optical density determined at 540 nm as an indicator of cellular viability.

[3] = system: 786-0; test: NCI-60 cytotoxicity screen; type: cell-based; conditions: Homo sapiens, NCI-60, 48 h, renal
Excerpt: (§1) Compounds 3–7 were submitted to the US National Cancer Institute (NIH, Bethesda, Maryland) for screening against the NCI-60 panel of human cancer cell lines, as per standard protocol.

[4] = system: A549; test: NCI-60 cytotoxicity screen; type: cell-based; conditions: Homo sapiens, NCI-60, 48 h, NSCLC
Excerpt: as §1

[5] = system: ACHN; test: NCI-60 cytotoxicity screen; type: cell-based; conditions: Homo sapiens, NCI-60, 48 h, renal
Excerpt: as §1

[6] = system: COLO205; test: NCI-60 cytotoxicity screen; type: cell-based; conditions: Homo sapiens, COLO 205; NCI-60, 48 h, colon
Excerpt: as §1

[7] = system: DU-145; test: NCI-60 cytotoxicity screen; type: cell-based; conditions: Homo sapiens, NCI-60, 48 h, prostate
Excerpt: as §1

[8] = system: H23; test: NCI-60 cytotoxicity screen; type: cell-based; conditions: Homo sapiens, NCI-60, 48 h, NSCLC
Excerpt: as §1

[9] = system: H460; test: NCI-60 cytotoxicity screen; type: cell-based; conditions: Homo sapiens, NCI-60, 48 h, NSCLC
Excerpt: as §1

[10] = system: HCT116; test: NCI-60 cytotoxicity screen; type: cell-based; conditions: Homo sapiens, HCT-116; NCI-60, 48 h, colon
Excerpt: as §1

[11] = system: HCT15; test: NCI-60 cytotoxicity screen; type: cell-based; conditions: Homo sapiens, HCT-15; NCI-60, 48 h, colon
Excerpt: as §1

[12] = system: HL-60; test: NCI-60 cytotoxicity screen; type: cell-based; conditions: Homo sapiens, NCI-60, 48 h, leukaemia
Excerpt: as §1

[13] = system: HOP-62; test: NCI-60 cytotoxicity screen; type: cell-based; conditions: Homo sapiens, NCI-60, 48 h, NSCLC
Excerpt: as §1

[14] = system: HS 578 T; test: NCI-60 cytotoxicity screen; type: cell-based; conditions: Homo sapiens, NCI-60, 48 h, breast
Excerpt: as §1

[15] = system: IGROV-1; test: NCI-60 cytotoxicity screen; type: cell-based; conditions: Homo sapiens, NCI-60, 48 h, ovarian
Excerpt: as §1

[16] = system: KM12; test: NCI-60 cytotoxicity screen; type: cell-based; conditions: Homo sapiens, NCI-60, 48 h, colon
Excerpt: as §1

[17] = system: LOX IMVI; test: NCI-60 cytotoxicity screen; type: cell-based; conditions: Homo sapiens, NCI-60, 48 h, melanoma
Excerpt: as §1

[18] = system: M14; test: NCI-60 cytotoxicity screen; type: cell-based; conditions: Homo sapiens, NCI-60, 48 h, melanoma
Excerpt: as §1

[19] = system: MCF-7; test: NCI-60 cytotoxicity screen; type: cell-based; conditions: Homo sapiens, MCF7; NCI-60, 48 h, breast
Excerpt: as §1

[20] = system: OVCAR-4; test: NCI-60 cytotoxicity screen; type: cell-based; conditions: Homo sapiens, NCI-60, 48 h, ovarian
Excerpt: as §1

[21] = system: OVCAR-8; test: NCI-60 cytotoxicity screen; type: cell-based; conditions: Homo sapiens, NCI-60, 48 h, ovarian
Excerpt: as §1

[22] = system: PC-3; test: NCI-60 cytotoxicity screen; type: cell-based; conditions: Homo sapiens, NCI-60, 48 h, prostate
Excerpt: as §1

[23] = system: RPMI-8226; test: NCI-60 cytotoxicity screen; type: cell-based; conditions: Homo sapiens, NCI-60, 48 h, leukaemia
Excerpt: as §1

[24] = system: SF-268; test: NCI-60 cytotoxicity screen; type: cell-based; conditions: Homo sapiens, NCI-60, 48 h, CNS
Excerpt: as §1

[25] = system: SF-295; test: NCI-60 cytotoxicity screen; type: cell-based; conditions: Homo sapiens, NCI-60, 48 h, CNS
Excerpt: as §1

[26] = system: SF-539; test: NCI-60 cytotoxicity screen; type: cell-based; conditions: Homo sapiens, NCI-60, 48 h, CNS
Excerpt: as §1

[27] = system: SK-MEL-28; test: NCI-60 cytotoxicity screen; type: cell-based; conditions: Homo sapiens, NCI-60, 48 h, melanoma
Excerpt: as §1

[28] = system: SK-MEL-5; test: NCI-60 cytotoxicity screen; type: cell-based; conditions: Homo sapiens, NCI-60, 48 h, melanoma
Excerpt: as §1

[29] = system: SR; test: NCI-60 cytotoxicity screen; type: cell-based; conditions: Homo sapiens, NCI-60, 48 h, leukaemia
Excerpt: as §1

[30] = system: U251; test: NCI-60 cytotoxicity screen; type: cell-based; conditions: Homo sapiens, U-251; NCI-60, 48 h, CNS
Excerpt: as §1

[31] = system: UACC-62; test: NCI-60 cytotoxicity screen; type: cell-based; conditions: Homo sapiens, NCI-60, 48 h, melanoma
Excerpt: as §1

[32] = system: UO-31; test: NCI-60 cytotoxicity screen; type: cell-based; conditions: Homo sapiens, NCI-60, 48 h, renal
Excerpt: as §1

[33] = system: H322M; test: NCI-60 cytotoxicity screen; type: cell-based, human; conditions: Homo sapiens, NCI-H322M; NCI-60, 48 h, NSCLC
Excerpt: as §1

[34] = system: TK-10; test: NCI-60 cytotoxicity screen; type: cell-based, human; conditions: Homo sapiens, TK-10; NCI-60, 48 h, renal
Excerpt: as §1

[35] = system: UACC-257; test: NCI-60 cytotoxicity screen; type: cell-based, human; conditions: Homo sapiens, UACC-257; NCI-60, 48 h, melanoma
Excerpt: as §1

[36] = system: OVCAR-5; test: NCI-60 cytotoxicity screen; type: cell-based; conditions: Homo sapiens, NCI-60, 48 h, ovarian
[37] = system: T-47D; test: NCI-60 cytotoxicity screen; type: cell-based, human; conditions: Homo sapiens, T47D; NCI-60, 48 h, breast

IC50 ([1]; A2780, MTT, 96 h, read-out: A2780 IC50): 1900 ± 400 nM
IC50 [2]: 400 ± 400 nM
Compound: C=C(CN1CCN(c2ccc(C(F)(F)F)cc2)CC1)c1ccc(C(=O)Nc2ccccc2N)cc1 [Compound 5, N-(2-aminophenyl)-4–(3-(4–(4-(trifluoromethyl)phenyl)piperazin-1-yl)prop-1-en-2-yl)benzamide]
IC50 ([1]; listed as A2780* of Table 4, ovarian, values as in Tables 1 and 2 (MTT), read-out: A2780* cytotoxicity IC50): 1900 nM
IC50 [3]: 2850 nM
IC50 [4]: 6.43 µM
IC50 [5]: 9.64 µM
IC50 [6]: > 100 µM
IC50 [7]: 21 µM
IC50 [8]: 9.48 µM
IC50 [9]: 3.44 µM
IC50 [10]: 11.4 µM
IC50 [11]: > 100 µM
IC50 [12]: 80 nM
IC50 [13]: 8.38 µM
IC50 [14]: 22.5 µM
IC50 [15]: 18.2 µM
IC50 [16]: 7.64 µM
IC50 [17]: 11.1 µM
IC50 [18]: 90.6 µM
IC50 [19]: 10.9 µM
IC50 [20]: 5.68 µM
IC50 [21]: 6.95 µM
IC50 [22]: 1290 nM
IC50 [23]: 400 nM
IC50 [24]: 6.78 µM
IC50 [25]: 10.8 µM
IC50 [26]: 8.15 µM
IC50 [27]: > 100 µM
IC50 [28]: 4.43 µM
IC50 [29]: 1100 nM
IC50 [30]: 6.25 µM
IC50 [31]: 23 µM
IC50 [32]: 970 nM
IC50 [33]: 40.5 µM
IC50 [34]: 21 µM
IC50 [35]: 2390 nM
IC50 [36]: > 100 µM
IC50 [37]: 21.8 µM
